Laboratory results reported in a melting point compilation (Tetko et al.; mined from patent text by program, amines drawn as free bases though some values may be those of a salt).

Row | melting point [°C] | SMILES
1 | 69 to 72 | O=Cc1cc(=O)c(OCc2ccccc2)c(C(=O)c2ccc(Cc3ccc(F)cc3)o2)o1
2 | 88 to 90 | CCNC(=O)C1=C(OC(C)C)c2cc(OC)ccc2S1=O (stereo unspecified)
3 | 185 to 186 | CCCC(CCC)n1c(CC)nc2c1c(=O)n(C)c(=O)n2-c1ccc(Cl)cc1Cl
4 | 100 to 103 | C#CC1=Cc2cc(Cl)ccc2Sc2ccc(SC)cc21
5 | 214 to 218 | COc1ccc(-c2ccc3c(c2)C=C(C(=O)Nc2ccc(CN(C)C4CCC(=O)CC4)cc2)CCS3(=O)=O)cc1
6 | > 300 | O=c1c(-c2ccc(Cl)cc2)c2c(cn1CO)Sc1ccccc1N2
7 | 232 to 234 | COc1cc(Cl)cc2nc(S(=O)(=O)Nc3c(Cl)cccc3Cl)nn12
8 | 180 to 190 | COc1ccc(-n2c(N)cc(=O)nc2Nc2ccccc2)cc1
9 | 139 to 140 | Cn1cc2c(C#CCO)cccc2n1
10 | 118 to 120 | Cc1cc(SC(C)C)c(NC(=O)CCCCSc2nc3cccc(C(F)(F)F)c3o2)c(SC(C)C)n1
11 | 245 to 247 | O=c1c2c(CCc3cccc([N+](=O)[O-])c3)n[nH]c2c2cccnc2n1-c1ccccc1
12 | 116 | CC#CCn1c(=N)sc2cc(OC(F)(F)F)ccc21
13 | 85 to 88 | CS(=O)(=O)OCCCC(c1ccccc1)c1ccccc1
14 | 77 to 79 | COc1ccc(-c2nc(SCCOCCn3ccnc3C)[nH]c2-c2ccc(OC)cc2)cc1
15 | 85 to 86 | CC1(C)CCC(=Cc2ccc(Cl)cc2)C(=O)C1
16 | 98 to 99 | Cc1noc(CCCCCCCOc2ccc(C3=NCCO3)cc2)c1CN1CCCC1
17 | 161 to 162 | NC(=O)c1ccc(F)c(O)c1F
18 | 215 to 216 | CCC(=O)Nc1cc(-c2ccnc(Nc3cccc(Cl)c3)n2)ccn1
19 | 178 to 191 | O=C(Nc1cccc2c(N3CCN(Cc4ccccc4)C3=O)ccnc12)c1c(Cl)cccc1Cl
20 | 202 to 203 | NC(=O)CCCSc1nccc(NC(N)=NCC(F)(F)F)n1
21 | 131 to 133 | O=S(=O)(NCCCCOc1ccc(-c2ccncn2)cc1)c1ccc(Br)cc1
22 | 127 to 129 | CN1CCC(O)(c2ccccc2F)CC1
23 | 176 to 177 | CCn1c(=S)c2[nH]c(C(C)C)nc2n(Cc2ccc(OC)c(OC3CCCC3)c2)c1=O
24 | 184 | CN(C(=O)c1cc(=O)n(C)c2ccc(C(=O)c3ccc(Cl)cc3)cc12)c1cccc(Cl)c1
25 | 156 to 157 | Cc1ccc(C(c2ccc(C)cc2)C2CN(Cc3ccc(O)cc3)CCC2=O)cc1 (stereo unspecified)

Row | melting point [°C] | SMILES
26 | 83 to 84 | CCCCNC(=O)Oc1ccc2c(c1)c(C)cn2NCCCc1ccncc1F
27 | 76 to 80 | CCN(CC)CCNC(=NC#N)NCCCSc1nccc(NC(N)=NCC(F)(F)F)n1
28 | 188 to 189 | CSc1c(OCC(=O)O)ccc2c3ccccc3n(Cc3ccccc3)c12
29 | 242 to 243 | O=C(O)c1ccc2c(c1)nc(-c1ccc(OC(c3cccc(F)c3)c3cccc(F)c3)cc1F)n2C1CCCCC1
30 | 220 to 224 | O=C(O)C(Cc1ccccc1)Oc1ccc2cc(-c3csc(-c4ccccc4)n3)ccc2c1Br (stereo unspecified)
31 | 68 to 69.5 | CCOC(=O)c1c(C(F)(F)F)nc(C(F)F)c(C(=O)OC)c1NC1CC1
32 | 128 to 129 | CCn1c(=O)c(Oc2ccc(F)cc2F)cc2cnc(S(C)(=O)=O)nc21
33 | 78 to 80 | Cc1c(CC2CCc3c(c4ccccc4n3Cc3ccccc3)C2=O)ncn1C(c1ccccc1)(c1ccccc1)c1ccccc1 (stereo unspecified)
34 | 126 to 127 | CCCc1c(C(O)C(C)C)c2ccc(C#N)cc2n1Cc1ccccc1Cl (stereo unspecified)
35 | 139 to 140 | CC(C)(C)OC(=O)Nc1ccc2ccc(S(=O)(=O)N(Cc3ccccc3)Cc3ccccc3)cc2c1
36 | 170 | CCOC(OCC)P(=O)(O)CCCN(C)Cc1ccc(Cl)cc1
37 | 76 to 80 | CCCCCc1c(-c2ccc3cc(OC)ccc3c2)n(Cc2ccccc2)c2ccccc12
38 | 146 to 148 | Cc1cc(C)c(C(=O)CCCCC(=O)O)c(O)c1C
39 | 192 to 195 | Cc1ccc(NC(=O)c2ccc(N)c([N+](=O)[O-])c2)cc1C
40 | 173 | COc1ccc(Cn2c(=O)oc(=O)c3cc(Cl)cnc32)cc1
41 | 143 to 144 | CCOC(=O)CNc1ncccc1NC(=O)c1cccc(Cl)c1
42 | 148 to 149 | NS(=O)(=O)c1ccccc1CCC(F)(F)F
43 | 153 to 154 | COc1cc(OC)c(C2CCN(C)CC2OC(C)=O)c(Oc2cccs2)c1C(C)=O (stereo unspecified)
44 | 230 | N#CC1=C(c2cccs2)Nc2n[nH]cc2C1c1cccc2nonc12 (stereo unspecified)
45 | 286 to 289 | Cc1nc(N2CCN(c3ccccc3)C2=O)sc1C(=O)O
46 | 126 to 127 | Cn1c(CO)ccc1S(=O)(=O)N1CCC(CCO)(Sc2cc(C(C)(C)C)c(O)c(C(C)(C)C)c2)CC1
47 | 288 | CCOc1ccc(-c2[nH]nc3c2C(=O)c2c(NC(C)=O)cccc2-3)cc1
48 | 107 to 109 | Cc1ccc(C(=O)NC(C)(C)C)c(Nc2ccc3cn[nH]c3c2)n1
49 | 84 | N#CC(Cl)=C(Cl)S(=O)(=O)c1cc(Cl)ccc1Cl
50 | 146 to 147 | CCCCCC(=O)c1c(CBr)nc2cc(OC)c(OC)cc2c1-c1ccc(OC)c(OC)c1

Row | melting point [°C] | SMILES
51 | 139 to 146 | COC(=O)c1ncccc1N
52 | 152 to 154 | CCc1cc(C(=O)O)c(O)cc1C
53 | 82 to 84.5 | OC(CCc1ccc(Cl)s1)Cn1ccnc1 (stereo unspecified)
54 | 144 to 145 | COc1cc(OCC(CO)CO)c(C=O)cc1-c1cccs1
55 | 136 | CCNC1=CC(=O)CC1
56 | 174 to 176 | Fc1ccc(F)c(COc2cccnc2NC(=S)Nc2ccc(Cl)cc2)c1F
57 | 99 to 100 | CS(=O)(=O)c1cccc(C(Cc2ccc(F)cc2)C(=O)Nc2nc3ccccc3o2)c1 (stereo unspecified)
58 | 179 to 180 | O=C(c1ccc(Cl)c(Cl)c1)c1ccc(O)c(Cl)c1Cl
59 | 99 to 101 | Cc1noc(C)c1S(=O)(=O)N(C)c1ccc(Cl)cc1[N+](=O)[O-]
60 | 96.5 to 97.5 | CCCOc1ccc(CCCOc2nn(Cc3ccccc3)cc2CC(=O)O)c(Oc2ncc(C(F)(F)F)cc2Cl)c1
61 | 110 to 112 | COc1ccc2c(c1)S(=O)(=O)C(C(=O)NCCCCCC(=O)O)C(=O)N2C (stereo unspecified)
62 | 195 to 196 | CC(C)CC(CO)NC(=O)c1ccccc1SSc1ccccc1C(=O)NC(CO)CC(C)C (stereo unspecified)
63 | 54 to 56 | COC(=O)c1ncccc1NC(=O)C(C)CSC(C)=O (stereo unspecified)
64 | 167 to 169 | CCC1Cn2c(ncc(C(=O)O)c2=O)-c2ccccc21 (stereo unspecified)
65 | 58 to 59 | C[C@H](Cn1ncc2ccc3c(c21)C=CCO3)O[Si](C)(C)C(C)(C)C
66 | 128 to 129 | COc1ccc(CC(=O)NC(NC(=NC#N)Nc2cccc3ncccc23)C(C)(C)C)cc1OC (stereo unspecified)
67 | 98 to 99 | COC(=O)N(C(S)=NC(C)C)c1c(C(C)C)cccc1C(C)C
68 | 97 to 98 | CN(C)C1CCC(Nc2ncnc3sc4c(c23)CCC4)CC1 (stereo unspecified)
69 | 207 to 209 | CC(C)c1c(/C=C/[C@@H]2C[C@@H](O)CC(=O)O2)n(-c2ccc(F)cc2)c(=O)c2ccccc12
70 | > 350 | O=c1cc2c3cccnc3sn2c2ccccc12
71 | 225 to 226 | Cc1ccc(C(=O)Nc2ccc(-n3nc(C(F)(F)F)cc3C(F)(F)F)cc2)cc1
72 | 209 to 211 | O=C(CN1CS(=O)(=O)CC1=O)N1CCN(C(c2ccccc2)c2ccccc2)CC1
73 | 136 to 142 | O=c1c2c(nc3c(O)cccn13)CCC2
74 | > 250 | O=Cc1ccn(C2=CC3=C(CC2)CCc2[nH]c(=O)c(=O)[nH]c23)c1
75 | 98 to 99 | C=CCNC(=O)C1=Cc2c1ccc(OC)c2OC

Row | melting point [°C] | SMILES
76 | 223 to 226 | O=C(O)CCCCN1CCN(C2=Nc3ccccc3Oc3ccc(Cl)cc32)CC1
77 | 47 to 48 | CCc1cc(Cl)c(N)c(Cl)c1
78 | 113 to 116 | C=CCN1C(=O)C2CC2(c2ccc(NC(C)=O)cc2)C1=O (stereo unspecified)
79 | 151 to 153 | COc1ccc2c(c1)N(C1=CCCN1C1=NCCC1)c1ccccc1S2
80 | 129 to 131 | CCC(Oc1cnc(Cl)c(Cl)c1)C(=O)NC(C)(C)C#CCO (stereo unspecified)
81 | 103 to 105 | NC1N=C(N2CCCCC2)c2ccccc2NC1=O (stereo unspecified)
82 | 166 | Cn1cc(N2C=CN=CC2)ccc1=O
83 | 200 to 201 | O=C(c1ccc(O)cc1)c1cccc(O)c1
84 | 78 to 81 | C[Si](C)(C)CCCCOC(=O)CSc1cc(Oc2ccc(C(F)(F)F)cc2Cl)ccc1[N+](=O)[O-]
85 | 168 to 169 | Cc1ccc(C=NNC(=O)OC(C)(C)C)cc1C
86 | > 220 | CON(C)C(=O)c1cc(-n2c(=O)cc(C(F)(F)F)[nH]c2=O)c(F)cc1Cl
87 | 112 to 113 | COc1cc([N+](=O)[O-])ccc1OCC(=O)C1CC1
88 | 107 to 108 | CCOC(=O)C1=C(C)NC(C(OCC)OCC)=C(C(=O)OCC)C1c1cccc(O)c1 (stereo unspecified)
89 | 37 to 38 | OCCCC#Cc1ccc2ccccc2c1
90 | 49 to 51 | Cc1cccc(Cl)c1CC#N
91 | 195 to 203 | CC1C=CC(NC(=O)OC(C)(C)C)C([N+](=O)[O-])C1c1cc([N+](=O)[O-])ccc1Cl (stereo unspecified)
92 | 241 to 242 | Clc1ccc2nc3c4ccccc4c4ccccc4c3nc2c1
93 | 217 to 218 | CC1CC(C)CN(Cc2ccc(C=CC(=O)Nc3ccc(-c4ccc(Cl)cc4)cc3)cc2)C1 (stereo unspecified)
94 | 97 to 99 | CNC(=NO)NCc1ccccc1
95 | 227 | CCCCc1cc(C(=O)O)ccc1C(N)C(=O)O (stereo unspecified)
96 | 103 | COc1cc2c(cc1OC)C(C)CC(N)C(=O)N2 (stereo unspecified)
97 | 61 to 62 | CCOC(=O)CCCC(=O)c1ccc(Oc2ccccc2)cc1
98 | 225 to 227 | COC(=O)c1cc2c(NC3CCC(O)CC3)nc(-c3ccccc3)nc2[nH]1 (stereo unspecified)

Row | SMILES | melting point [°C]
99 | CCC1(C(F)(F)F)C(=O)NC(=O)NC1=O | 208 to 209
100 | C[C@]12CC(=C(F)F)[C@H]3[C@@H](CCC4=CC(=O)CC[C@@H]43)[C@@H]1CCC2=O | 158 to 164
101 | CC1(C)CCCC(Cl)(Cl)C(=O)N1 | 148 to 155
